In US20140066488A1, “Inhibitors of Memapsin 2 Cleavage for the Treatment of Alzheimer's Disease” (Purdue Research Foundation, priority 2012, published 2014):
Where two headings read alike, the source gives them in different places.

Tests used:
[1] = molecular target: human CD (cathepsin D) (Homo sapiens, UniProt P07339); test: enzyme inhibition of human cathepsin D (CD); format: biochemical; conditions: for Ki: human CD; for selectivity CD/BACE 1: ratio of Ki values; for selectivity against CD: BACE 1 over CD
[2] = molecular target: recombinant β-secretase (BACE 1, memapsin 2) (Homo sapiens, UniProt P56817); test: BACE 1 enzyme inhibitory assay against recombinant β-secretase
Protocol: The BACE 1 inhibitory activity of synthetic inhibitors 4-9 was determined against recombinant β-secretase using previously reported assay protocols (Ermolieff et al., 2000).

[3] = molecular target: β-secretase in neuroblastoma cells (Homo sapiens, UniProt P56817)
Description: The inventors have also evaluated the cellular inhibition of β-secretase in neuroblastoma cells.

[4] = molecular target: T1, recombinant BACE 2 (Homo sapiens, UniProt Q9Y5Z0); test: enzyme inhibition of recombinant BACE 2; format: biochemical; conditions: for selectivity BACE 2/BACE 1: ratio of Ki values; for Ki: recombinant BACE 2
T1 sequence (Q9Y5Z0 63-518): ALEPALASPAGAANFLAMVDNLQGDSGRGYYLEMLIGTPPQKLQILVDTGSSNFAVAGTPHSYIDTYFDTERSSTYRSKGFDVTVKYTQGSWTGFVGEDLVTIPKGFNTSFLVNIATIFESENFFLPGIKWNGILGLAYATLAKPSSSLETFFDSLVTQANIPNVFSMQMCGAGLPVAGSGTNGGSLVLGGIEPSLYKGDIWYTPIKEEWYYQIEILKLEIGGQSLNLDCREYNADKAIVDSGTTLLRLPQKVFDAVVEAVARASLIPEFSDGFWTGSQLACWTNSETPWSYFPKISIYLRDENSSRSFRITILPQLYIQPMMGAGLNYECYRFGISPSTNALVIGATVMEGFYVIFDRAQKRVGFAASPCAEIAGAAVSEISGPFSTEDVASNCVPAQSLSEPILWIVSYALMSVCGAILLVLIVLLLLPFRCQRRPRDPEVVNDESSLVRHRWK

[5] = read-out: Ki (nM) BACE 1, recombinant β-secretase
[6] = read-out: IC50 (nM), cellular, determined in neuroblastoma cells

Sequence of recombinant β-secretase (BACE 1, memapsin 2) (P56817 46-501): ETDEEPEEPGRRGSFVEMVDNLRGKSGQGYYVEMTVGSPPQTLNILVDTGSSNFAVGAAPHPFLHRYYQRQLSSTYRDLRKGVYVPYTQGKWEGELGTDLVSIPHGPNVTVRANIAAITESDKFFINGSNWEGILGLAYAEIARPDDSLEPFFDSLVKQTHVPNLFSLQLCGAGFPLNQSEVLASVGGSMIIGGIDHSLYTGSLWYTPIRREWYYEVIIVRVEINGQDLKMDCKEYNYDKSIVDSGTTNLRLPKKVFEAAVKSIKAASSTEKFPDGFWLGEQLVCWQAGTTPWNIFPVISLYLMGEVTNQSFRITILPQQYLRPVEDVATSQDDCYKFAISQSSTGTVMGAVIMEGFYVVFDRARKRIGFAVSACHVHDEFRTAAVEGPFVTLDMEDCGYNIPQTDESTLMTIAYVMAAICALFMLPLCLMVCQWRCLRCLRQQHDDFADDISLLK
Sequence of β-secretase in neuroblastoma cells (P56817 46-501): as above
Sequence of human CD (cathepsin D) (P07339 65-412): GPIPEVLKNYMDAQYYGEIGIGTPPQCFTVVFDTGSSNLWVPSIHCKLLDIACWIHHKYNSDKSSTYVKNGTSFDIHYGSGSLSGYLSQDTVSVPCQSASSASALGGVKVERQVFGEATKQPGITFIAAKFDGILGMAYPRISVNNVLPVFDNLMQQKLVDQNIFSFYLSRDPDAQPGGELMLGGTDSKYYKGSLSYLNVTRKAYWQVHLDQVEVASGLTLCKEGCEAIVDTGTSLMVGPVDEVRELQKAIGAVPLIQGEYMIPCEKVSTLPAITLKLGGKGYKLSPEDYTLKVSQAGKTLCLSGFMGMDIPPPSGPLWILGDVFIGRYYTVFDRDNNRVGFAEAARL

selectivity against CD (in words) [1] | Ki [1] [nM] | selectivity CD/BACE 1 [1] | Ki [2, 5] [nM] | IC50 [3, 6] [nM] | BACE 1 inhibitory activity (in words) ([2]; recombinant β-secretase) | SMILES | other results
excellent selectivity | 530 | >14700 | 0.036 | 15 | – | CCC[C@H](O)[C@H](NC[C@H](Cc1ccccc1)NC(=O)c1cc2c3c(c1)c(CC)cn3CC(C)(C)S(=O)(=O)N2C)C(=O)NCC(C)C [Inhibitor 20] | potency enhancement ([2]; BACE 1 Ki, over unsubstituted inhibitor 19): > 10 fold; selectivity against BACE 2 (in words) [4]: good selectivity; selectivity BACE 2/BACE 1 [4]: >300; Ki [4]: 11 nM
– | 7100 | >970 | 7.3 | 22 | – | CCc1cn2c3c(cc(C(=O)N[C@H](CN[C@H](C(=O)NCC(C)C)[C@H](C)O)Cc4ccccc4)cc13)N(C)S(=O)(=O)CC2 [Inhibitor 18] | selectivity against CD [1]: over 970 fold; ratio of cell inhibitory to enzyme inhibitory efficacy ([3]; cellular IC50 / BACE 1 Ki): 3
– | 2000 | >4200 | – | – | impressive potency | CCC[C@H](O)[C@H](NC[C@H](Cc1ccccc1)NC(=O)c1cc2c3c(c1)c(CC)cn3CC1(CC1)S(=O)(=O)N2C)C(=O)NCC(C)C [Inhibitor 22] | selectivity against CD [1]: > 4200 fold; Ki [2]: 0.47 nM; IC50 [3]: 14 nM
– | – | – | 7.2 | – | impressive potency | CCc1cn2c3c(cc(C(=O)N[C@H](CN[C@H](C(=O)NCC(C)C)[C@H](C)O)Cc4ccccc4)cc13)N(C)S(=O)(=O)C1(CC1)C2 [Inhibitor 21] | –
– | – | – | – | – | abolished all BACE 1 inhibitory activity | CC(C)CN(C)C(=O)[C@@H](NC[C@H](Cc1ccccc1)NC(=O)c1cc(C(=O)N[C@H](C)c2ccccc2)cc(N(C)S(C)(=O)=O)c1)[C@H](C)O [Inhibitor 7] | Ki [2]: > 1000 nM
– | – | – | – | – | total loss in potency | CC(C)CNC[C@@H](NC[C@H](Cc1ccccc1)NC(=O)c1cc(C(=O)N[C@H](C)c2ccccc2)cc(N(C)S(C)(=O)=O)c1)[C@H](C)O [Inhibitor 9] | –
marginal selectivity | 8260 | >300 | 27 | 9.5 | – | CC[C@H](NC[C@H](Cc1ccccc1)NC(=O)c1cc(C(=O)N[C@H](C)c2ccccc2)cc(N(C)S(C)(=O)=O)c1)C(=O)NCC(C)C [Inhibitor 4] | selectivity against BACE 2 (in words) [4]: marginal selectivity; selectivity against BACE 2 ([4]; BACE 1 over BACE 2): > 50 fold; selectivity BACE 2/BACE 1 [4]: >55; Ki [4]: 1450 nM
improvement in CD selectivity | 690 | >1700 | 0.4 | – | – | CCC[C@H](O)[C@H](NC[C@H](Cc1ccccc1)NC(=O)c1cc2c3c(c1)c(CC)cn3CCS(=O)(=O)N2C)C(=O)NCC(C)C [Inhibitor 19] | improvement in the potency ([2]; BACE 1 Ki, inhibitor 19 versus inhibitor 18): around 18 fold

SMILES | selectivity against CD (in words) [1] | Ki [1] [nM] | selectivity CD/BACE 1 [1] | Ki [2, 5] [nM] | IC50 [3, 6] [nM] | BACE 1 inhibitory activity (in words) ([2]; recombinant β-secretase) | other results
CO[C@@H](C)[C@H](NC[C@H](Cc1ccccc1)NC(=O)c1cc(C(=O)N[C@H](C)c2ccccc2)cc(N(C)S(C)(=O)=O)c1)C(=O)NCC(C)C [Inhibitor 8] | – | – | – | 25 | – | substantial reduction in inhibitory potency | –
